Data from article PMC7737769, “Pharmacological inhibition of syntenin PDZ2 domain impairs breast cancer cell activities and exosome loading with syndecan and EpCAM cargo” (Journal of Extracellular Vesicles, 2020).

Legend:
[1] = system: T1, GRASP55‐JAM‐C complex; experiment: HTRF assay, GRASP55-JAM-C interaction; type: biochemical, human; settings: 400µM compound; Figure 1c
T1 construct: Human GRASP55 tandem PDZ; made in house; host or cells: E. coli BL21 (DE3)
Method: HTRF assays were performed in white 96Well Small VolumeHiBase Polystyrene Microplates (Greiner) with a total working volume of […], as described previously (Milhas et al., 2016). Briefly, compounds were firstly dispensed into the wells at 400 µM for the primary screen or with serial DMSO dilutions for IC50 measurement assays. Primary screening assays have been performed in monoplicate while IC50 measurements were performed in triplicates. All HTRF reagents were purchased from CisBio Bioassays and reconstituted according to the supplier protocols. The plates were spun for 3 min at 500 × g and then incubated at 4°C for 16 h. The HTRF signals were recorded on a POLAR star Omega plate reader (BMG Labtech) with an excitation filter at 337 nm and fluorescence wavelength measurement at 620 and 665 nm, an integration delay of 60 µs and an integration time of 400 µs. Results were analysed with a two‐wavelength signal ratio: [intensity (665 nm)/intensity (620 nm)] × 10^4. Percentage of inhibition was calculated using the following equation: % inhibition = [(compound signal)–(min signal)]/[(max signal)–(min signal)] × 100, where ‘max signal’ is the signal ratio with the compound vehicle alone (DMSO) and ‘min signal’ the signal ratio without protein B. For IC50 measurements, values were normalized and fitted with Prism (GraphPad software) using the following equation: Y = 100/(1+((X/ IC50)ˆHill slope)).
The search strategy for PDZ2 syntenin inhibitors was based on the PDZ targeted library developed from Enamine compound collection. The PDZ targeted library was developed to cover virtually all PDZ domains. Consequently, to create the syntenin PDZ2 focused library we used two independent paths: docking of the PDZ targeted library against structures of syntenin PDZ2 available in Protein Data Bank and a random selection from the PDZ targeted library. The docking has produced 21 virtual hits, which were added to 118 randomly selected compounds (10% of the pan PDZ library). The resultant set of 139 compounds, syntenin PDZ library was subjected to experimental validation. The primary screen was performed at 400µM using a previously validated Homogeneous Time Resolved Fluorescence (HTRF) assay (Milhas et al., 2016). HTRF is based on Fluorescence Resonance Energy Transfer (FRET) between two fluorescent reagents. In the present case, Anti‐GST‐Terbium antibody and streptavidin‐bound Dynamic2 were used as donor and acceptor respectively. Interactions between GST PDZ‐fusion proteins and biotinylated peptides containing PDZ binding motifs were challenged with the potential inhibitors. In parallel, control experiments were performed with a biotinylated‐GST to verify that compounds were not interfering with the FRET signal in a non‐specific manner. To identify inhibitors of syntenin PDZ interactions, we tested for the effect of the 139 compounds on syntenin‐SDC2 and syntenin‐Frizzled7 complexes (Figure 1a; Table S1). When the HTRF signal dropped below 0.9, inhibition was considered as effective. […] Noteworthy, these compounds had no effect on other PDZ complexes like GRASP55‐JAM‐B or GRASP55‐JAM‐C and Erbin‐Erbb2 or Erbin‐P0071 (Figure 1c).

[2] = target: T2, syntenin‐PDZ tandem (without C‐terminal domain) (Homo sapiens, UniProt O00560); experiment: Surface plasmon resonance (BIAcore), syntenin PDZ tandem; type: binding; settings: compound in PBS, read-out: apparent KD, syntenin‐PDZ tandem (without C‐terminal domain)
T2 construct: made in house; host or cells: Biotin XCell F' E. coli cells
T2 sequence (O00560 107-275): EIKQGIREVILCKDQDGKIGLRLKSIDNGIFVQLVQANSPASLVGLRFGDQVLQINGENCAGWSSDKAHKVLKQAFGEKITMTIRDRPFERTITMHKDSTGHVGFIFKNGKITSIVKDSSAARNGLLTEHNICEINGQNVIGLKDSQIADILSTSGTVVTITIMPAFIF
Method: (§1) All SPR experiments were conducted with a BIAcore T200 instrument (GE Healthcare), at 25°C. A total of 8000 resonance units (RU) of biotinylated ligands (N‐terminal 6xHis tagged biotinylated syntenin tandem, syntenin tandem with C terminus, GRASP55 tandem or GST as control) were immobilized on a streptavidin‐sensor chip (GE Healthcare). Analytes (C58 and SyntOFF compounds) were perfused at 30 µl per min in running buffer (10 mM HEPES pH 7.4, 150 mM NaCl, 0.005% Tween20) at different concentrations. The reference channel was N‐terminal 6xHis tagged biotinylated GST protein. The injection time was 240 s, long enough for the sensorgrams to reach equilibrium, and the dissociation time was 240 s. To carry out these SPR experiments, we employed the method known as ‘single‐cycle kinetics’ described in 2006 by Karlsson and co‐workers (Karlsson, Katsamba, Nordin, Pol, & Myszka, 2006). It consists in injecting the analyte at increasing concentrations, without regeneration steps between each sample injection to avoid that folded‐proteins can be damaged after regeneration steps. Equilibrium dissociation constants (KD) were calculated by fitting the data to a simple Langmuir binding isotherm using GraphPad Prism. For determination of the apparent KD, signals obtained at equilibrium were plotted as a function of compound concentration. […]

[3] = system: T3, GRASP55‐PDZ tandem; experiment: Surface plasmon resonance (BIAcore), GRASP55 PDZ tandem; type: binding, human; settings: 50µM ‐1000 µM
T3 construct: made in house; host or cells: Biotin XCell F' E. coli cells
Method: as §1

[4] = Chemical solubility and stability in PBS; type: physicochemical; settings: aqueous buffer; PBS pH 7.4 22°C
[5] = system: MCF‐7 SyntKO cells; experiment: Mammosphere formation assay, MCF-7 SyntKO; type: cell-based; settings: 100 µM
Method: MCF‐7 and MCF‐7 SyntKO cells were treated with increasing concentrations of compounds C58, SyntOFF (50‐100µM) or DMSO 0.2% as control. After 24 h, cells were trypsinized, re‐suspended in normal growth media and washed three times in PBS to remove serum. Cell concentration was determined using the LUNA-FL Automated Fluorescence Cell Counter (Logos Biosystem) and cells were then seeded at 1000 cells/ml in 6‐well Ultra low Adherence plates (Corning Inc., Corning, NY) in MEBM medium (Lonza) supplemented with 5 µg/ml insulin (Sigma‐Aldrich), 20 ng/ml recombinant epidermal growth factor (Sigma‐Aldrich), 1X of B27 supplement (Invitrogen, Carlsbad, CA, USA), 0.5 µg/ml hydrocortisone (Sigma‐Aldrich), 1X of β‐mercaptoethanol and 1% penicillin/streptomycin (Gibco). Fresh medium was added into the plates every 3–4 days. The number of spheres (diameter > 50 µm) was evaluated under microscope on days 7–10. Sphere formation was calculated as the number of spheres divided by the original number of cells seeded and normalized to control.

solubility [4]	Structure (SMILES)	GST-GRASP JAM-C (signal ratio) [1]	Kd [2]	binding to GRASP55‐PDZ tandem [3]	mammosphere formation [5]
	CC(C)[C@H](NC(=O)CSc1ccc(Cl)cc1)C(=O)O [Compound C58]	1	1030 µM	no binding	
> 2300 µg/mL	CC(C)[C@H](NC(=O)CCSc1ccc(Cl)cc1)C(=O)O [SyntOFF, (S)‐2‐(3‐(4‐chlorophenylthio)propanamido)‐3‐methylbutanoic acid]				no effect
